Measured values: patent US20240043435A1, “TYK-2 INHIBITOR” (BEIGENE, LTD., priority 2020, published 2024)

Legend:
[1] = target: T1, TYK2-JH2 (aa 575-869, in-house) protein (Homo sapiens, UniProt P29597); test: TYK2-JH2 biochemical assay (HTRF probe displacement); assay type: binding; conditions: Biochemical assay; read-out: TYK2-JH2 IC50
T1 construct: TYK2-JH2 (aa 575-869, in-house) protein; made in house
In short: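 Recombinant TYK2-JH2 (0.2 nM) was pre-incubated 0.5 h at room temperature with compounds (10 doses, 5-fold dilution; 500× DMSO stocks from 500 uM) in 20 mM HEPES pH 7.5, 10 mM MgCl2, 0.005% BSA, 2 mM DTT, 0.015% Brij-35. Probe displacement was read by HTRF (ex337, em620/665 nm); IC50 from four-parameter logistic fit.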

[2] = tested on: JAK2, TYK2/p-STAT4 (Tyr693) activated by IL-12 in NK-92 cell line; test: IL-12-JAK2, TYK2/p-STAT4 (Tyr693) inhibition IC50 cellular assay; assay type: cell-based; conditions: for Selectivity fold (TYK2/JAK2): Cellular assay, pSTAT5/GM-CSF IC50 vs pSTAT4/IL-12 IC50; for IC50: NK92, Cellular assay, read-out: pSTAT4/IL-12 IC50
Text: Assay C: IL-12-JAK2, TYK2/p-STAT4 (Tyr693) Inhibition IC50 Cellular Assay
To evaluate the inhibition effect of compounds disclosed herein on JAK2, TYK2/p-STAT4 (Tyr693) activated by IL-12 in NK-92 cell line, NK-92 cells were collected and washed 3 times by DPBS and resuspended in MEM-α (GIBCO, Cat #12561056) with 10% FBS (Gibco, Cat #10099, Lot #1891605), without IL-2 (R&D systems, Cat #202-IL), starved overnight. Cells were collected and resuspended in 1640 medium (phenol red free, Gibco, Cat #11835-030) with 0.1% BSA, and 12.5 μl/5×10^4/well cell suspension were seeded to the 96-well plate (Corning, Cat #3799). Then cells were treated with compounds diluted in 0.2% DMSO 1640 medium, at 37° C., 1 h. Dilution is done according to the following protocol: (1) make 500× compounds solution in DMSO from 5 mM by 4-fold dilution, total 8 doses were included; (3) make 2× compounds solution in assay medium by transferring 0.5 μl serial 500× stock solution into 125 μl assay medium; (4) 15 μl of 2× serial solution is added to cells and incubate at 37° C. for 1 h, the final compound conc. is 10000, 2500, 625, 156.25, 39, 9.8, 2.4 and 0.61 nM, respectively. After 1 h, cells were treated with 2.5 μl medium containing IL-12 at 37° C. (R&D systems, Cat #219-IL-005, final conc. 40 ng/ml), 30 min. Following cells were lysed with 7.5 μl lysis buffer at RT, shaking on shaker for 1 h. 10 μL of cell lysate were transferred to a PE 384-well Proxiplate detection plate, and 5 μL of pre-mixed Alphascreen beads were added to each well. Covered the plate with a plate sealer, span 1000 rpm for 1 min, mix, Incubated overnight at room temperature. Read on BMG PheraStar with Alphascreen protocol. IC 50 values were calculated by fitting dependent data to the four-parameter logistic model using dotmatics software. The assay was performed by using AlphaLISA SureFire Ultra p-STAT4 (Tyr693) Assay Kit—High Volume (PE, Cat #ALSU-PST4-A-HV).

pSTAT5/GM-CSF = pSTAT5/GM-CSF cellular assay (JAK2 selectivity); assay type: cell-based

T1 sequence (P29597 575-869): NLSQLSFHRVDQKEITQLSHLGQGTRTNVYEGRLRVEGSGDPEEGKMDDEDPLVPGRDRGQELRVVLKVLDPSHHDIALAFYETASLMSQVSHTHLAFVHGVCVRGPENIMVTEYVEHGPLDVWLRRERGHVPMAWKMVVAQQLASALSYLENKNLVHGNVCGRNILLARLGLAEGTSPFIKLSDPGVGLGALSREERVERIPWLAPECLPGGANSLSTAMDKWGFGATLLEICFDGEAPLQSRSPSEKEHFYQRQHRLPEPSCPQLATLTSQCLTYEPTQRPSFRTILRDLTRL

Compound: COc1ccc(-c2cnc(NC(C)=O)cc2Nc2cc(OCC3CC3)cc(S(C)(=O)=O)n2)nn1 [Example A25, N-(4-((4-(cyclopropylmethoxy)-6-(methylsulfonyl)pyridin-2-yl)amino)-5-(6-methoxypyridazin-3-yl)pyridin-2-yl)acetamide]
- IC50 [1]: 0.027 nM
- Selectivity fold (TYK2/JAK2) [2]: >16778 fold
- IC50 [2]: 0.596 nM
- IC50 (pSTAT5/GM-CSF): > 10000 nM

Compound: COc1ccc(-c2cnc(NC(C)=O)cc2Nc2cc(OC(C)C)cc(S(C)(=O)=O)n2)nn1 [Example A26, N-(4-((4-isopropoxy-6-(methylsulfonyl)pyridin-2-yl)amino)-5-(6-methoxypyridazin-3-yl)pyridin-2-yl)acetamide]
- IC50 [1]: 0.032 nM
- Selectivity fold (TYK2/JAK2) [2]: >24691 fold
- IC50 [2]: 0.405 nM
- IC50 (pSTAT5/GM-CSF): > 10000 nM

Compound: COc1ccc(-c2cnc(NC(C)=O)cc2Nc2cc(N3C[C@@H](C)O[C@@H](C)C3)cc(S(C)(=O)=O)n2)nn1 [Example A27, N-(4-((4-((2S,6R)-2,6-dimethylmorpholino)-6-(methylsulfonyl)pyridin-2-yl)amino)-5-(6-methoxypyridazin-3-yl)pyridin-2-yl)acetamide]
- IC50 [1]: 0.034 nM
- Selectivity fold (TYK2/JAK2) [2]: >4761 fold
- IC50 [2]: 2.1 nM
- IC50 (pSTAT5/GM-CSF): > 10000 nM

Compound: COc1ccc(-c2cnc(NC(C)=O)cc2Nc2nc(S(C)(=O)=O)cc3c2OCO3)nn1 [Example A28, N-(5-(6-methoxypyridazin-3-yl)-4-((6-(methylsulfonyl)-[1,3]dioxolo[4,5-c]pyridin-4-yl)amino)pyridin-2-yl)acetamide]
- IC50 [1]: 0.033 nM
- Selectivity fold (TYK2/JAK2) [2]: >6578 fold
- IC50 [2]: 1.52 nM
- IC50 (pSTAT5/GM-CSF): > 10000 nM

Compound: CC(=O)Nc1cc(Nc2cc(C)cc(S(C)(=O)=O)n2)c(-c2ccc(OC(C)C)nn2)cn1 [Example A29, N-(5-(6-isopropoxypyridazin-3-yl)-4-((4-methyl-6-(methylsulfonyl)pyridin-2-yl)amino)pyridin-2-yl)acetamide]
- IC50 [1]: 0.042 nM
- Selectivity fold (TYK2/JAK2) [2]: >22123 fold
- IC50 [2]: 0.452 nM
- IC50 (pSTAT5/GM-CSF): > 10000 nM

Compound: CC(=O)Nc1cc(Nc2cccc(S(N)(=O)=O)n2)c(-c2ccccn2)cn1 [Example B4, N-(4′-((6-sulfamoylpyridin-2-yl)amino)-[2,3′-bipyridin]-6′-yl)acetamide]
- IC50 [1]: 0.019 nM
- Selectivity fold (TYK2/JAK2) [2]: >3952 fold
- IC50 [2]: 2.53 nM
- IC50 (pSTAT5/GM-CSF): > 10000 nM

Compound: CC(=O)Nc1cc(Nc2cc(OCCO)cc(S(C)(=O)=O)n2)c(-c2ccccn2)cn1 [Example B7, N-(4′-((4-(2-hydroxyethoxy)-6-(methylsulfonyl)pyridin-2-yl)amino)-[2,3′-bipyridin]-6′-yl)acetamide]
- IC50 [1]: 0.016 nM
- Selectivity fold (TYK2/JAK2) [2]: >1792 fold
- IC50 [2]: 5.58 nM
- IC50 (pSTAT5/GM-CSF): > 10000 nM

Compound: COCc1ccnc(-c2cnc(NC(C)=O)cc2Nc2cccc(S(C)(=O)=O)n2)c1 [Example B8, N-(4-(methoxymethyl)-4′-((6-(methylsulfonyl)pyridin-2-yl)amino)-[2,3′-bipyridin]-6′-yl)acetamide]
- IC50 [1]: 0.047 nM
- Selectivity fold (TYK2/JAK2) [2]: >5952 fold
- IC50 [2]: 1.68 nM
- IC50 (pSTAT5/GM-CSF): > 10000 nM

Compound: CC(=O)Nc1cc(Nc2cccc(S(C)(=O)=O)n2)c(-c2ccc(N3CCOC(C)(C)C3)cn2)cn1 [Example B12, N-(5-(2,2-dimethylmorpholino)-4′-((6-(methylsulfonyl)pyridin-2-yl)amino)-[2,3′-bipyridin]-6′-yl)acetamide]
- IC50 [1]: 0.034 nM
- Selectivity fold (TYK2/JAK2) [2]: 824 fold
- IC50 [2]: 0.74 nM
- IC50 (pSTAT5/GM-CSF): 610 nM

Compound: CC(=O)Nc1cc(Nc2cc(OC(C)C)cc(S(C)(=O)=O)n2)c(-c2ccc(N3CC4CC3CO4)cn2)cn1 (stereo not shown) [Example B16, N-(5-(2-oxa-5-azabicyclo[2.2.1]heptan-5-yl)-4′-((4-isopropoxy-6-(methylsulfonyl)pyridin-2-yl)amino)-[2,3′-bipyridin]-6′-yl)acetamide]
- IC50 [1]: 0.03 nM
- Selectivity fold (TYK2/JAK2) [2]: 8366 fold
- IC50 [2]: 0.513 nM
- IC50 (pSTAT5/GM-CSF): 4290 nM

Compound: CC(=O)Nc1cc(Nc2cccc(S(C)(=O)=O)n2)c(-c2cc(Cl)c(C(C)(C)O)cn2)cn1 [Example B17, N-(4-chloro-5-(2-hydroxypropan-2-yl)-4′-((6-(methylsulfonyl)pyridin-2-yl)amino)-[2,3′-bipyridin]-6′-yl)acetamide]
- IC50 [1]: 0.035 nM
- Selectivity fold (TYK2/JAK2) [2]: >4878 fold
- IC50 [2]: 2.05 nM
- IC50 (pSTAT5/GM-CSF): > 10000 nM

Compound: COCC1CN(c2ccc(-c3cnc(NC(C)=O)cc3Nc3cc(OC(C)C)cc(S(C)(=O)=O)n3)nc2)CCO1 (stereo not shown) [Example B18, N-(4′-((4-isopropoxy-6-(methylsulfonyl)pyridin-2-yl)amino)-5-(2-(methoxymethyl)morpholino)-[2,3′-bipyridin]-6′-yl)acetamide]
- IC50 [1]: 0.036 nM
- Selectivity fold (TYK2/JAK2) [2]: >9523 fold
- IC50 [2]: 1.05 nM
- IC50 (pSTAT5/GM-CSF): > 10000 nM

Compound: CC(=O)Nc1cc(Nc2cc(C)cc(S(C)(=O)=O)n2)c(-c2ccc(O[C@H]3CCOC3)cn2)cn1 [Example B21, (S)-N-(4′-((4-methyl-6-(methylsulfonyl)pyridin-2-yl)amino)-5-((tetrahydrofuran-3-yl)oxy)-[2,3′-bipyridin]-6′-yl)acetamide]
- IC50 [1]: 0.047 nM
- Selectivity fold (TYK2/JAK2) [2]: 5620 fold
- IC50 [2]: 0.443 nM
- IC50 (pSTAT5/GM-CSF): 2490 nM

Compound: CC(=O)Nc1cc(Nc2cc(OCCO)cc(S(C)(=O)=O)n2)c(-c2ccc(OC3CCOC3)cn2)cn1 (stereo not shown) [Example B22, N-(4′-((4-(2-hydroxyethoxy)-6-(methylsulfonyl)pyridin-2-yl)amino)-5-((tetrahydrofuran-3-yl)oxy)-[2,3′-bipyridin]-6′-yl)acetamide]
- IC50 [1]: 0.025 nM
- Selectivity fold (TYK2/JAK2) [2]: 197 fold
- IC50 [2]: 12.6 nM
- IC50 (pSTAT5/GM-CSF): 2490 nM

Compound: CC(=O)Nc1cc(Nc2cccc(S(C)(=O)=O)n2)c(-c2ccc(OC3CCOC3)cn2)cn1 (stereo not shown) [Example B23, N-(4′-((6-(methylsulfonyl)pyridin-2-yl)amino)-5-((tetrahydrofuran-3-yl)oxy)-[2,3′-bipyridin]-6′-yl)acetamide]
- IC50 [1]: 0.04 nM
- Selectivity fold (TYK2/JAK2) [2]: 3260 fold
- IC50 [2]: 0.307 nM
- IC50 (pSTAT5/GM-CSF): 1000 nM

Compound: CC(=O)Nc1cc(Nc2cc(C)cc(S(C)(=O)=O)n2)c(-c2ccc(N3C[C@@H](C)O[C@@H](C)C3)cn2)cn1 [Example C1, N-(5-(cis-2,6-dimethylmorpholino)-4′-((4-methyl-6-(methylsulfonyl)pyridin-2-yl)amino)-[2,3′-bipyridin]-6′-yl)acetamide]
- IC50 [1]: 0.027 nM
- Selectivity fold (TYK2/JAK2) [2]: 639 fold
- IC50 [2]: 0.881 nM
- IC50 (pSTAT5/GM-CSF): 563 nM

Compound: CC(=O)Nc1cc(Nc2cccc(S(C)(=O)=O)n2)c(-c2ccc(N3C[C@@H](C)O[C@@H](C)C3)cn2)cn1 [Example C2, N-(5-((cis)-2,6-dimethylmorpholino)-4′-((6-(methylsulfonyl)pyridin-2-yl)amino)-[2,3′-bipyridin]-6′-yl)acetamide]
- IC50 [1]: 0.026 nM
- Selectivity fold (TYK2/JAK2) [2]: 3083 fold
- IC50 [2]: 0.312 nM
- IC50 (pSTAT5/GM-CSF): 962 nM

Compound: CC(=O)Nc1cc(Nc2cccc(S(C)(=O)=O)c2)c(-c2ccc(N3C[C@@H](C)O[C@@H](C)C3)cn2)cn1 [Example C3, N-(5-((cis)-2,6-dimethylmorpholino)-4′-((3-(methylsulfonyl)phenyl)amino)-[2,3′-bipyridin]-6′-yl)acetamide]
- IC50 [1]: 0.032 nM
- Selectivity fold (TYK2/JAK2) [2]: >1721 fold
- IC50 [2]: 5.81 nM
- IC50 (pSTAT5/GM-CSF): > 10000 nM

Compound: CC(=O)Nc1cc(Nc2cc(OC(C)C)cc(S(C)(=O)=O)n2)c(-c2ccc(N3C[C@@H](C)O[C@@H](C)C3)cn2)cn1 [Example C4, N-(5-((cis)-2,6-dimethylmorpholino)-4′-((4-isopropoxy-6-(methylsulfonyl)pyridin-2-yl)amino)-[2,3′-bipyridin]-6′-yl)acetamide]
- IC50 [1]: 0.034 nM
- Selectivity fold (TYK2/JAK2) [2]: >2298 fold
- IC50 [2]: 4.35 nM
- IC50 (pSTAT5/GM-CSF): > 10000 nM
